Data as given in patent publication US8029770B2 (Rutgers, The State University, priority 2003, dated 2011).

What was measured:
[1] = tested on: prostate tumor cell line PC-3; test: Apoptosis in prostate tumor cell line PC-3; assay type: cell-based
[2] = tested on: apoptotic sunburn cells in the epidermis of C57/BL/6J p53(+/+) mice; test: UVB-induced apoptotic sunburn cells in C57/BL/6J p53(+/+) mice, topical caffeine; assay type: in vivo, mouse
Procedure: (§1) The time course for apoptosis was determined by utilizing morphologically distinct sunburn cells as the marker for apoptosis. […] Accordingly, studies with a C57/BL/6J mouse were performed with a 60 mJ/cm^2 dose of UVB.
(§2) Measurement of apoptotic sunburn cells. Identification of apoptoic sunburn cells was based morphologically on cell shrinkage and nuclear condensation due to fragmentation of the cells. […] The percentage of apoptotic sunburn cells in the epidermis (basal plus suprabasal layers) was calculated from the number of these cells per 100 cells counted from the entire 20 mm length of epidermis for each skin section.

[3] = tested on: apoptotic sunburn cells in the epidermis of C57/BL/6J p53(−/−) mice; test: UVB-induced apoptotic sunburn cells in C57/BL/6J p53(−/−) mice, topical caffeine; assay type: in vivo, mouse
Procedure: as §1, §2

SMILES	apoptosis in PC-3 ([1]; 0.1, 0.2 or 0.5 mM for 96 hours)	pro-apoptotic effect compared with caffeine ([1]; PC-3, 0.1, 0.2 or 0.5 mM, 96 hours)	enhancement of formation of UVB-induced apoptotic sunburn cells vs UVB plus acetone ([2]; female p53(+/+), 1.2 mg in 100 μL acetone immediately, 0.5 and 2 h after UVB 60 mJ/cm^2, 6 hours after UVB) [%]	effect on apoptosis in non-UVB-treated mice ([2]; female p53(+/+), no UVB)	effect on apoptosis in non-UVB-treated epidermis ([2]; male p53(+/+), no UVB)	enhancement of UVB-induced increase in apoptotic sunburn cells ([3]; female p53(−/−), UVB 60 mJ/cm^2, 6 hours after UVB) [%]	effect on apoptosis in non-UVB-treated epidermis ([3]; male p53(−/−), no UVB)
Cn1c(=O)c2c(ncn2C)n(C)c1=O.O=C([O-])c1ccccc1.[Na+] [Caffeine Sodium Benzoate, caffeine sodium benzoate]	dose-response relationship on apoptosis	more potent than caffeine at all dose levels tested					
Cn1c(=O)c2c(ncn2C)n(C)c1=O [Caffeine, caffeine]			127	no effect	no effect	563	no effect
